Test results from patent publication US20240011976A1, “ADDITIVES FOR REDUCING NON-SPECIFIC INTERACTIONS BETWEEN FLUORESCENT POLYMER CONJUGATES AND CELLS IN A BIOLOGICAL SAMPLE” (Beckman Coulter, Inc., priority 2008, published 2024).
Entries after “also recorded” stand apart in the source; their conditions may differ.

Tests used:
monocytes [1] = assay: Monocyte background (non-specific binding) of SN 428 conjugates with EMPIGEN BB, whole blood flow cytometry; format: cell-based; settings: 0.06 to 0.20% Empigen BB vs absence of surfactant, FIG. 11
Protocol: (§1) The efficiency of zwitterionic surfactant EMPIGEN BB® on the reduction of non-specific binding with monocytes was evaluated. Other populations were also studied, namely lymphocytes and granulocytes, to evaluate the non-impact of the detergent on MFI and percentage of cells.
(§2) The experimental conditions were generally as follows: • CD19-SN 428 (lot D19-094, polymer lot RDS-042919 (82.7 kD), 1 dose (0.5 μg/test). • CD22-SN 428 (lot D19-109, polymer lot WX-20190624 (86.4 kD), 1 dose (0.5 μg/test). • CD25-SN 428 (lot D19-107, polymer lot RDS-062419 (72.8 kD), 1 dose (0.5 μg/test). • CD19, CD22 and CD25-BV 421 from Becton Dickinson at 1× commercial dose. • Three doses of EMPIGEN BB®0.06%, 0.12%, and 0.2% prepared in conjugate final formulation. • Added 10 μL sample with 100 μL whole blood. • Tested on 2 donors lysing with VersaLyse (lysing solution, used to lyse red blood cells, Beckman Coulter, Inc.)+Fix, one wash. • Navios flow cytometer acquisition on FL9.
(§3) The required x number of tubes were prepared, wherein “x number of tubes” depends on the performance tested. A calculated volume of conjugated antibody (at required dose) was added to each tube. Whole blood (100 μL) was added in each tube. The tubes were gently vortexed for 15 seconds and incubated for 15 to 20 minutes at room temperature at 18-25° C. and protected from light. […]

positive lymphocytes = assay: Positive lymphocyte signal of SN 428 conjugates with EMPIGEN BB, whole blood flow cytometry; format: cell-based; settings: compared to the condition without EMPIGEN
Protocol: as §1, §2, §3

granulocytes [2] = assay: Non-specific binding of SN 605-CD20 and SN 786-CD103 conjugate lots to granulocytes with and without EMPIGEN BB (MdFI, dot plots); format: cell-based; settings: with vs without surfactant (EMPIGEN BB), FIG. 3 and FIG. 6
Protocol: In order to confirm the effect of EMPIGEN BB®, two lots of SN 605-CD20 conjugates were tested in the presence and absence of EMPIGEN BB®. The mean fluorescence intensity (MFI) was compared to the autofluorescence (negative population median fluorescence intensity (MdFI)) of the monocytes from the unstained sample.
Two lots of SN 786-CD103 conjugates were tested in presence and absence of EMPIGEN BB® and the autofluorescence (negative population MdFI) of the monocyte and granulocyte population is compared against an unstained sample.

monocytes/granulocytes = assay: Blood sample stained with unconjugated polymer dye SN v605 with and without Empigen BB, flow cytometry; format: cell-based; settings: SN v605 without antibody, with EMPIGEN BB, FIG. 2
Source text: A blood sample was stained with unconjugated polymer dye SN v605 (without antibody), with and without Empigen BB®, and analyzed in a flow cytometer. […] In FIG. 2, the fluorescent polymer dye SN v605 without antibody was used to stain a blood sample and analyzed in a flow cytometer. […] While not wishing to be bound by any specific theory, it is thought that the polymer is likely adsorbing on the cell surface of monocytes and granulocytes.

whole blood cells = assay: 7-AAD staining, percentage of dead cells in whole blood; format: cell-based; settings: up to 0.2% EMPIGEN BB with CD19-SNv428, 7-AAD
Protocol: The percentage of dead cells in whole blood sample with the 7-AAD was evaluated. 7-AAD is a DNA marker, the staining is positive when the cellular membrane is permeabilized. CD19-SNv428 D19-094 without EMPIGEN BB®@(negative control) and with 0.06%, 0.12%, and 0.2% EMPIGEN BB®, was tested on four donors' whole blood, with the 7-ADD, to evaluate the percentage of dead cells in each condition. The goal of the experiment was to verify if the percentage of dead cells is not increased by the EMPIGEN BB® concentration.
Two whole blood samples that had been preserved for greater than 24 hours were added as positive control of 7-AAD staining.
Protocol for 7-AAD staining: • 100 μl whole blood+10 μl CD19-SNv428+/−Empigen, incubation 20 minutes. • Lyse with Versalyse, one wash, • Resuspension in 500 μl PBS 1× • Add 20 μl of 7-AAD (Ref B88526), incubation 15-20 minutes • Navios flow cytometer acquisition: FL4 for 7-AAD and FL9 for CD19-SNv428

[3] = Empigen BB concentration in conjugate formulation and during staining versus CMC; format: physicochemical
Protocol: The micellar concentration was studied in samples and during the staining to be sure not to exceed critical micellar concentration (CMC). […] CMC was studied in the conjugate formulation and during the staining in 100 μL whole blood. Experiments were conducted to evaluate the impact of addition of EMPIGEN BB® on whole blood cell integrity and also on peripheral blood mononuclear cells (PMBCs).

monocytes [4] = assay: Anionic surfactant NLS, non-specific staining of CD20-SN v605 on monocytes, peripheral blood flow cytometry; format: cell-based; settings: CD20-SN v605, buffer with BSA, sodium azide and Empigen BB, FIG. 17B
Protocol: (§4) In this example, different concentrations (0.16%, 0.08%, 0.04% and 0.02% w/v) of NLS was formulated with SN v605 CD20 conjugate in the presence of BSA and sodium azide and stained peripheral blood samples. Flow cytometry was performed following sample staining.

granulocytes [5] = assay: Anionic surfactant NLS, non-specific staining of CD20-SN v605 on granulocytes, peripheral blood flow cytometry; format: cell-based; settings: CD20-SN v605, buffer with BSA, sodium azide and NLS, FIG. 17B
Protocol: as §4

[6] = 20-25° C.; cited from earlier work
granulocytes/monocytes = assay: Protein blockers, non-specific interactions of SN v605-CD20 conjugate with granulocytes/monocytes; format: cell-based
Source text: The issue of non-specific interaction on monocytes was also observed with conventional tandem dyes (e.g., PC5, PC5.5, PC7, AA700 available from Beckman Coulter, Inc.). To overcome this issue, it was thought that BSA-ox (oxidized BSA) and BSA-Cy5-ox (oxidized Cy5-BSA), which are known protein blockers, might prevent non-specific binding.

Compound	non-specific monocyte interactions (negative monocyte MFI) (monocytes [1])	variation of the positive signal on lymphocytes (positive lymphocytes)	percentage of non-specifically bound granulocytes (dot plot gate) (granulocytes [2])	non-specific binding of polymer dye to monocytes/granulocytes (monocytes/granulocytes)	percentage of dead cells / whole blood cell death (whole blood cells)	concentration relative to CMC, formulation in the vial ([3]; 0.2% in the vial)	Empigen BB concentration, formulation in the vial ([3]; 0.2%, 2 g/L, 279 g/mol)	concentration relative to CMC during the staining ([3]; 100 μL WB, 10 μl conjugate)	Empigen BB concentration during the staining ([3]; 100 μL WB, 10 μl conjugate, dilution factor 11)	% population in the gate Mons Non-specific binding (monocytes [4])	% population in the gate Grans Non-specific binding (granulocytes [5])	CMC [6]	percentage of non-specifically bound monocytes and granulocytes / controlling non-specific interactions (granulocytes/monocytes; FIG. 10)	percentage of non-specifically bound monocytes and granulocytes / controlling non-specific interactions (granulocytes/monocytes; FIG. 10, listed as oxidized BSA)
CCCCCCCCCCCC[N+](C)(C)CC(=O)[O-] [EMPIGEN BB®, N,N-dimethyl-N-dodecylglycine betaine]	lower percent of non-specific monocyte interactions	did not induce a significant variation	reduced	substantially reduced; also recorded: reduced drastically; also recorded: substantial decrease	does not induce whole blood cell permeabilization or death; also recorded: didn't induce whole blood cell death; also recorded: not substantially increased	> CMC within the conjugate formulation	7.2 mM	< CMC during the staining	0.65 mM	0.64%	0.68%	1.6 to 2.1 mM	–	–
BSA-ox: oxidized BSA, known protein blocker	–	–	–	–	–	–	–	–	–	–	–	–	inefficient	not substantially reduced
BSA-Cy5-ox: oxidized Cy5-BSA, known protein blocker	–	–	–	–	–	–	–	–	–	–	–	–	inefficient; also recorded: not substantially reduced	–
